Ki data for one compound are collected here from patent US7081481B2, “Excitatory amino acid receptor modulators” (Eli Lilly and Company, priority 2000, dated 2006).

In general, Ki refers to the equilibrium dissociation constant of an inhibitor or competing ligand from its target.

The experiment concerns the target T1, mGluR^2 (Homo sapiens, UniProt Q14416).
T1 construct: expressed in transfected cells
In words: [3H] LY341495 binding displacement at mGluR2. The following applies: cells expressing human mGluR subtypes, radioligand [3H] LY341495, read-out: Ki, reversal of [3H] LY341495 binding. From the text:
(D. D. Schoepp, et al., Neuropharmacol., 1996, 35, 1661–1672 and 1997, 36, 1–11).
(LY341495 is described in Ornstein et al., J. Med. Chem., 1998, 41, 346–357 and J. Med. Chem., 1998, 41, 358 to 378).

T1 sequence (Q14416 19-872): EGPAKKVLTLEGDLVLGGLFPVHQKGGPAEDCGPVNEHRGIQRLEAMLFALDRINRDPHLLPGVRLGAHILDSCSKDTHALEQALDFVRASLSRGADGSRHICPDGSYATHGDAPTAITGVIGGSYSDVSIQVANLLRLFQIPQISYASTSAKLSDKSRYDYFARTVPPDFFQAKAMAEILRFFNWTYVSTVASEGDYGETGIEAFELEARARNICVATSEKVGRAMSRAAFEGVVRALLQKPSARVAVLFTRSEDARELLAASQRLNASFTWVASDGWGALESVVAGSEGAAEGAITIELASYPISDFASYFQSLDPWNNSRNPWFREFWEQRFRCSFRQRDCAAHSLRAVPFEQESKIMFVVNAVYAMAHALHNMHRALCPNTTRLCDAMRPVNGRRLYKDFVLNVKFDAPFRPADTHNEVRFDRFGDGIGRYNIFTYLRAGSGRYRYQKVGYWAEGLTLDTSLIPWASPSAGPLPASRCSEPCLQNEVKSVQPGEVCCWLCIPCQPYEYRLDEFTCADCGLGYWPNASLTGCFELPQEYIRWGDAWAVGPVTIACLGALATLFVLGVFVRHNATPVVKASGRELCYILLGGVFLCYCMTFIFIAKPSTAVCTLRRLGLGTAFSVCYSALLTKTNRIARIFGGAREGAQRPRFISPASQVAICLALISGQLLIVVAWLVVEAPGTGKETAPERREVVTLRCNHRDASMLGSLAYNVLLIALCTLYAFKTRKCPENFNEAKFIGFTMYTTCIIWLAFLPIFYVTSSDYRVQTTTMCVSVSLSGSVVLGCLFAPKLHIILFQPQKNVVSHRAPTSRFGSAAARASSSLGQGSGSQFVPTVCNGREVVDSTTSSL

On to `N[C@@H](C(=O)O)[C@@H]1[C@H](COC(=O)Nc2ccccc2)[C@H]1C(=O)O` (racemic) [Example 1, (2SR,1′SR,2′RS,3′RS)-2-(3′-phenylcarbamoyloxymethyl-2′-carboxycyclopropyl)glycine], for which the Ki is 285 nM.
